Measured values as given in patent US5409926A, “AT-2 antagonist inhibition of vascular restenosis” (Merck & Co., Inc., priority 1993, dated 1995).
Entries after “also recorded” stand apart in the source; their conditions may differ.

Key:
Type in all cases: in vivo
restenosis in the rat [1] = experiment: Effect of Compound II or Compound I pretreatment on restenosis in the rat; conditions: 1 mg/kg/day i.v.; for Intimal Area / % Inhibition (intimal area): 48 h pretreatment, 14 days; for % Inhibition (intimal area): vs. control
Method: The Effect of Compound II on restenosis in the rat
Rats were pretreated with Compound II or Compound I for the 48 hour period prior to surgery as well as on the day of surgery (1 mg/kg/day, bolus i.v.). Drug treatment was continued at the time of angioplasty (1 mg/kg/day, continuous i.v.) for the duration of the experiments (14 days).

restenosis in the rat [2] = experiment: Effect of Compound I on restenosis in the rat: dose-response study; conditions: for I/M / Intima Area / Media Area: day 14
Method: The effect of Compound I on restenosis in the Rat: Dose-response study
Compound I was delivered as an i.v. bolus at the time of angioplasty (0.1-1.0 mg/kg) followed by continuous i.v. infusion (0.1-1.0 mg/kg/day) until sacrifice on day 14.

restenosis in the rat [3] = experiment: Effect of AII + Compound I on restenosis in the rat; conditions: for effect on formation of the neointima (in words): exogenous AII 14 ug/kg/hr i.v., with or without Compound I
Method: The effect of AII+Compound I on restenosis in the rat
AII was delivered by continuous i.v. infusion (14 ug/kg/hr) beginning at the time of angioplasty. Compound I was delivered as an i.v. bolus at the time of angioplasty (1.0 mg/kg) followed by continuous i.v. infusion (1.0 mg/kg/day). Rats were sacrificed on day 14.

restenosis in the rat [4] = experiment: Effect of Compound I pretreatment and Compound I-Heparin combination therapy on restenosis in the rat; conditions: for Intima Area: average ± sem
Method: The effect of Compound I pretreatment and Compound I--Heparin Combination therapy on restenosis in the rat
Compound I was delivered as an i.v. bolus at the time of angioplasty (1.0 mg/kg) followed by continuous i.v. infusion (1.0 mg/kg/day). Some groups were pretreated with Compound I. Pretreatment (PreRx) was begun 48 hr (1 mg/kg/day, i.v. bolus) prior to angioplasty. In all cases, Compound I treatment was continued for 14 days post-angioplasty. Other groups received Compound I in conjunction with heparin (0.3 mg/kg i.v. bolus+0.3 mg/kg/hr continuous i.v.) begun at the time of angioplasty and discontinued either 2 or 4 days later. The Hep 4d and Hep 2d data from above is included.

[5] = test system: rat carotid artery model of balloon angioplasty; experiment: Enalaprilat, Compound II, Compound I in rat carotid artery model of balloon angioplasty; conditions: 1 mg/kg/day continuous i.v.; for Intimal Area + sem / % Inhibition (intimal area): pretreatment (pt), 14 days; for % Inhibition (intimal area): vs. control; for inhibition of restenosis / neointima (in words): pretreatment
Method: AII Receptor Antagonist: The effect of enalaprilat, the AII (site 2) receptor antagonist, Compound II, and Compound II in combination with the AII (site 1) receptor antagonist, Compound I, were evaluated in the rat carotid artery model of balloon angioplasty. Rats were pretreated surgery and drag treatment was continued (1 mg/kg/day, continuous i.v.) by ALZET minipump for the duration of the experiments. Fourteen days after balloon angioplasty, the rats were sacrificed and the extent of restenosis was determined by morphometric measurements of the newly-formed intima.

[6] = test system: restenosis in the rat model; experiment: Effects of Compound II (alone, + Compound I, + heparin) and heparin on restenosis in the rat model (balloon angioplasty); conditions: for Intimal Area / % Inhibition of restenosis (intimal area): 14 days after balloon angioplasty, Compounds 1 mg/kg/day i.v. with 48 h pretreatment; for Intimal Area: heparin 0.3 mg/kg bolus + 0.3 mg/kg/hr i.v. for 4 days; for % Inhibition of restenosis (intimal area): heparin 0.3 mg/kg/hr i.v. for 4 days, vs. control
Method: The effects of the angiotensin II (Site II) receptor antagonist Compound II on restenosis in the rat model
A vehicle treatment group was compared to rats treated with: i) the AII (AT2) receptor antagonist, Compound II; ii) Compound II plus the AII (AT1) receptor antagonist, Compound I; (iii) Compound II+heparin; and iv) heparin only. Combination treatment with Compound II and Compound I were administered for the 48 hour period prior to surgery as well as on the day of surgery at 1 mg/kg/day by bolus i.v. Compound II and Compound I treatment was continued at the time of angioplasty at 1 mg/kg/day by continuous i.v. delivery via Alzet minipumps for the duration of the experiments (14 days). Heparin was delivered as a 0.3 mg/kg i.v. bolus at the time of angioplasty followed by continous i.v. delivery at 0.3 mg/kg/hr by Alzet minipump. Heparin treatment was discontinued 4 days later. Fourteen days after balloon angioplasty, the rats were sacrificed and the extent of restenosis was determined by morphometric measurements of the newly-formed intima.

restenosis in the rat [7] = experiment: Effect of Heparin on restenosis in the rat: time course; conditions: for I/M / Intima Area / Media Area: heparin 0.3 mg/kg/hr i.v.
Method: The effect of Heparin on restenosis in the rat: time course
Heparin (0.3 mg/kg/hr) was delivered by i.v. bolus (0.3 mg/kg) at the time of angioplasty followed by continuous i.v. delivery for 2, 4 or 14 days (0.3 mg/kg,hr). The animals were sacrificed on day 14.

[8] = PreRx (48 hr, 1 mg/kg/day), no heparin
[9] = no pretreatment, no heparin, Compound I 1.0 mg/kg/day i.v., 14 days
[10] = no pretreatment, Hep 4d (0.3 mg/kg/hr i.v.)
[11] = AII 14 ug/kg/hr i.v., Compound I 1.0 mg/kg bolus + 1.0 mg/kg/day i.v., day 14

With `CCc1nc2c(C)cc(C)nc2n1Cc1ccc(-c2ccccc2-c2nnn[nH]2)cc1` [Compound I, 5,7-dimethyl-2-ethyl-3-[(2'-(1H-tetrazol-5-yl)[1,1']-biphenyl-4-yl]-methyl]-3H-imidazo[4,5-b]pyridine] the “inhibition of neointimal formation (in words)” value (restenosis in the rat [1]) was “may independently inhibit growth of the neointimal formation”, the “Intimal Area” value (restenosis in the rat [1]) was 0.121 ± 0.012 mm^2 and the “% Inhibition (intimal area)” value (restenosis in the rat [1]) was 41%. For the same compound, the I/M (restenosis in the rat [2]; 0.1 mg/kg/day i.v.) was 1.64 ± 0.09, the “Intima Area” value (restenosis in the rat [2]; 0.1 mg/kg/day i.v.) was 0.212 ± 0.013 mm^2 and the “Media Area” value (restenosis in the rat [2]; 0.1 mg/kg/day i.v.) was 0.129 ± 0.003 mm^2. For the same compound, the I/M (restenosis in the rat [2]; 0.3 mg/kg/day i.v.) was 1.47 ± 0.19, the “Intima Area” value (restenosis in the rat [2]; 0.3 mg/kg/day i.v.) was 0.148 ± 0.014 mm^2 and the “Media Area” value (restenosis in the rat [2]; 0.3 mg/kg/day i.v.) was 0.103 ± 0.009 mm^2. The I/M (restenosis in the rat [2]; 1.0 mg/kg/day i.v.) was 1.24 ± 0.04, the “Intima Area” value (restenosis in the rat [2]; 1.0 mg/kg/day i.v.) was 0.149 ± 0.009 mm^2 and the “effect on formation of the neointima (in words)” value (restenosis in the rat [3]) was “inhibits this stimulation”. The I/M (restenosis in the rat [4]; [8]) was 1.01 ± 0.07, the “Media Area” value (restenosis in the rat [4]; [8]) was 0.124 ± 0.006 mm^2 and the “Intima Area” value (restenosis in the rat [4]; [8]) was 0.125 ± 0.010 mm^2. The I/M (restenosis in the rat [4]; [9]) was 1.19 ± 0.04, the “Media Area” value (restenosis in the rat [4]; [9]) was 0.125 ± 0.006 mm^2 and the “Intima Area” value (restenosis in the rat [4]; [9]) was 0.149 ± 0.009 mm^2. For the same compound, the “reduction in the neointimal area (in words)” value (restenosis in the rat [4]; pretreatment for 2 days or co-administration of heparin) was “reduction in the neointimal area when compared with no pretreatment”, the “Intimal Area + sem” value [5] was 0.121 ± 0.012 mm^2 and the “% Inhibition (intimal area)” value [5] was 41%. For the same compound, the “inhibition of restenosis / neointima (in words)” value [5] was “independently inhibit neointima in this model”.

`C[C@H](N[C@@H](CCc1ccccc1)C(=O)O)C(=O)N1CCC[C@H]1C(=O)O` [enalaprilat] was tested, and the “Intimal Area + sem” value [5] was 0.133 ± 0.016 mm^2, the “% Inhibition (intimal area)” value [5] was 35% and the “inhibition of restenosis / neointima (in words)” value [5] was “inhibit restenosis in this model; also recorded: independently inhibit neointima in this model”.

In the case of heparin, the “Intimal Area” value [6] is reported as 0.158 ± 0.016 mm^2, the “% Inhibition of restenosis (intimal area)” value [6] is reported as 23% and the I/M (restenosis in the rat [4]; Hep 2d alone) is reported as 1.14 ± 0.13. For the same compound, the “Media Area” value (restenosis in the rat [4]; Hep 2d alone) was 0.130 ± 0.008 mm^2, the “Intima Area” value (restenosis in the rat [4]; Hep 2d alone) was 0.144 ± 0.012 mm^2 and the I/M (restenosis in the rat [4]; [10]) was 1.17 ± 0.10. For the same compound, the “Media Area” value (restenosis in the rat [4]; [10]) was 0.136 ± 0.010 mm^2, the “Intima Area” value (restenosis in the rat [4]; [10]) was 0.158 ± 0.016 mm^2 and the I/M (restenosis in the rat [7]; 2 days) was 1.14 ± 0.13. For the same compound, the “Intima Area” value (restenosis in the rat [7]; 2 days) was 0.144 ± 0.012 mm^2, the “Media Area” value (restenosis in the rat [7]; 2 days) was 0.130 ± 0.008 mm^2 and the I/M (restenosis in the rat [7]; 4 days) was 1.17 ± 0.10. The “Intima Area” value (restenosis in the rat [7]; 4 days) was 0.158 ± 0.016 mm^2, the “Media Area” value (restenosis in the rat [7]; 4 days) was 0.136 ± 0.010 mm^2 and the I/M (restenosis in the rat [7]; 14 days) was 0.77 ± 0.05. The “Intima Area” value (restenosis in the rat [7]; 14 days) was 0.098 ± 0.008 mm^2, the “Media Area” value (restenosis in the rat [7]; 14 days) was 0.128 ± 0.004 mm^2 and the “effect on formation of neointima (in words)” value (restenosis in the rat [7]; heparin alone, 2, 4 or 14 days) was “decreases the formation of neointima; also recorded: greatest degree of inhibition was observed when heparin was given for 14 days”.

For `CCc1nc2ccc(N(Cc3ccccc3)C(=O)c3cccs3)cc2c(=O)n1Cc1ccc(-c2ccccc2-c2nn[nH]n2)cc1` [Compound II], the “Intimal Area” value [6] was 0.097 ± 0.027 mm^2, the “% Inhibition of restenosis (intimal area)” value [6] was 53% and the “effect upon neointimal formation (in words)” value ([6]; rat carotid model, administration alone) was “significant effect upon neointimal formation”. For the same compound, the “inhibition of neointimal formation (in words)” value (restenosis in the rat [1]) was “may independently inhibit growth of the neointimal formation”, the “Intimal Area” value (restenosis in the rat [1]) was 0.097 ± 0.027 mm^2 and the “% Inhibition (intimal area)” value (restenosis in the rat [1]) was 53%. The “inhibition of neointimal formation (in words)” value (restenosis in the rat [2]; 0.1-1.0 mg/kg/day i.v.) was “inhibits neointimal formation in a dose dependent manner”, the “Intimal Area + sem” value [5] was 0.097 ± 0.027 mm^2 and the “% Inhibition (intimal area)” value [5] was 53%. For the same compound, the “inhibition of restenosis / neointima (in words)” value [5] was “inhibit restenosis in this model; also recorded: independently inhibit neointima in this model”.

In the case of “Angiotensin II (DRVYIHPF; Angiotensin-2; UniProt P01019 25-32, looked up) [AII, powerful arterial vasoconstrictor]”, the I/M (restenosis in the rat [3]; [11]) is reported as 1.92 ± 0.19, the “Intima Area” value (restenosis in the rat [3]; [11]) is reported as 0.348 ± 0.047 mm^2 and the “Media Area” value (restenosis in the rat [3]; [11]) is reported as 0.176 ± 0.008 mm^2. The “effect on formation of the neointima (in words)” value (restenosis in the rat [3]) was “stimulates the formation of the neointima by almost two fold”.
